Laboratory results: article PMC9184463, “Structural basis of ligand binding modes of human EAAT2” (Nature Communications, 2022)
“And” between values parts separate entries of the source, which are not always exact repeats. Identical values can stand only once.

Columns and labels:
wild-type hEAAT2 = molecular target: T1, wild-type hEAAT2 (Homo sapiens, UniProt P43004); assay: whole-cell patch-clamp of hEAAT2-associated anion current, wild-type hEAAT2 in HEK293T cells; assay type: cell-based; settings: for WAY-213613-inhibited current, normalized (MEAN): WT
T1 construct: Strep Tag II (N); superfolder GFP (sfGFP) (N); expressed in transfected cells; host or cells: HEK293T
Procedure: (§1) Human embryonic kidney 293T (HEK293T) cells were cultured in Dulbecco’s Modified Eagle Medium (DMEM, Gibco) media supplemented with 15% (v/v) fetal bovine serum (FBS, PAN-Biotech) at 37 °C with 5% CO2. HEK293T cells were grown in the culture dishes (d = 3.5 cm) (Thermo Fisher Scientific) for 24 h and then 1 μg hEAAT2 wild-type and mutant plasmids for per dishes were used to transiently transfect HEK293T using 0.7 μg Lipofectamine 2000 Reagent (Thermo Fisher Scientific). Cells were analyzed using electrophysiological experiments between 24 and 40 h after transfection at room temperature (21–25 °C).
(§2) Electrophysiological experiments were performed as described previously with a minor modification. External buffer contained 140 mM NaCl, 2 mM MgCl2, 2 mM CaCl2, and 10 mM HEPES (pH = 7.4 with NaOH and osmolarity of ∼310 mosmol L^−1) and while internal pipette solution comprised of 130 mM NaSCN, 2 mM MgCl2, 10 mM EGTA, 10 mM HEPES (pH = 7.4 with NaOH and osmolarity of ∼310 mosmol L^−1) and 10 mM glutamate. 50 mM WAY-213613 stock solutions were prepared in dimethyl sulfoxide (DMSO), followed by dilutions to working concentrations with the above-mentioned external buffer. […] Whole cell patch-clamp experiment recordings were made from isolated GFP-positive HEK293T cells (hEAAT2 wild type and mutants). In all, 3–6 MΩ was used to fire a polished pipette (Sutter Instrument). […] Cells were immersed in the above-mentioned external buffer supplemented with a specified concentration of glutamate or WAY-213613. Glutamate-induced anion current, Na^+-dependent anion leak current and glutamate transport current or WAY-213613 inhibited anion leak currents were recorded using an EPC-10 amplifier (HEKA Electronic) at a 20 kHz sample rate with low pass filter at 5 kHz. All experiments were executed at 0 mV. After the cell current was stabilized, glutamate or WAY-213613 was sustained at the indicated concentrations from external dosing for at least 6 s. Subsequently, the cell was washed away with external buffer to start a new round of applications or end the experiment. The plateau currents were used for the following calculations. For analysis, the data was acquired by PatchMaster program (HEKA Electronic) at 5 s after recording. Nonlinear dose–response relationships were fitted into a Michaelis–Menten-like equation shown as below to obtain the apparent Km and Ki values in the presence of glutamate or WAY-213613.1 I/Imax=Km/i/C+Km/i In this equation, I represent the current at different glutamate or inhibitor concentrations, and Imax represents the maximal current at the saturating concentration of glutamate or inhibitor. [C] represents the concentration of glutamate or inhibitor. Km/i represents the apparent constant.

hEAAT2 mutant D475A = molecular target: T2, hEAAT2 mutant D475A (Homo sapiens, UniProt P43004, D475A); assay: whole-cell patch-clamp, hEAAT2 mutant D475A in HEK293T cells; assay type: cell-based; settings: 0 mV; for WAY-213613-inhibited current, normalized (MEAN): D475A
T2 construct: Strep Tag II (N); superfolder GFP (sfGFP) (N); expressed in transfected cells; host or cells: HEK293T
Procedure: as §1, §2

hEAAT2 mutant R478A = molecular target: T3, hEAAT2 mutant R478A (Homo sapiens, UniProt P43004, R478A); assay: whole-cell patch-clamp, hEAAT2 mutant R478A in HEK293T cells; assay type: cell-based; settings: 0 mV; for WAY-213613-inhibited current, normalized (MEAN): R478A
T3 construct: Strep Tag II (N); superfolder GFP (sfGFP) (N); expressed in transfected cells; host or cells: HEK293T
Procedure: as §1, §2

hEAAT2 mutant S441G = molecular target: T4, hEAAT2 mutant S441G (Homo sapiens, UniProt P43004, S441G); assay: whole-cell patch-clamp, hEAAT2 mutant S441G in HEK293T cells; assay type: cell-based; settings: 0 mV; for WAY-213613-inhibited current, normalized (MEAN): S441G
T4 construct: Strep Tag II (N); superfolder GFP (sfGFP) (N); expressed in transfected cells; host or cells: HEK293T
Procedure: as §1, §2

hEAAT2 mutant I464V = molecular target: T5, hEAAT2 mutant I464V (Homo sapiens, UniProt P43004, I464V); assay: whole-cell patch-clamp, hEAAT2 mutant I464V in HEK293T cells; assay type: cell-based; settings: 0 mV; for WAY-213613-inhibited current, normalized (MEAN): I464V
T5 construct: Strep Tag II (N); superfolder GFP (sfGFP) (N); expressed in transfected cells; host or cells: HEK293T
Procedure: as §1, §2

hEAAT2 mutant L467I = molecular target: T6, hEAAT2 mutant L467I (Homo sapiens, UniProt P43004, L467I); assay: whole-cell patch-clamp, hEAAT2 mutant L467I in HEK293T cells; assay type: cell-based; settings: 0 mV; for WAY-213613-inhibited current, normalized (MEAN): L467I
T6 construct: Strep Tag II (N); superfolder GFP (sfGFP) (N); expressed in transfected cells; host or cells: HEK293T
Procedure: as §1, §2

hEAAT2 mutant V468I = molecular target: T7, hEAAT2 mutant V468I (Homo sapiens, UniProt P43004, V468I); assay: whole-cell patch-clamp, hEAAT2 mutant V468I in HEK293T cells; assay type: cell-based; settings: 0 mV; for WAY-213613-inhibited current, normalized (MEAN): V468I
T7 construct: Strep Tag II (N); superfolder GFP (sfGFP) (N); expressed in transfected cells; host or cells: HEK293T
Procedure: as §1, §2

hEAAT1 = settings: cited from earlier work
hEAAT3 = settings: cited from earlier work
[1] = system: ionotropic and metabotropic glutamate receptors; settings: sentence of earlier manuscript version quoted by reviewer; no reference given; cited from earlier work
[2] = 0.3 μM WAY-213613, normalized to current at 100 μM
[3] = 1 μM WAY-213613, normalized to current at 100 μM
[4] = 3 μM WAY-213613, normalized to current at 100 μM
[5] = 10 μM WAY-213613, normalized to current at 100 μM
[6] = 30 μM WAY-213613, normalized to current at 100 μM
[7] = 100 μM WAY-213613, normalization reference
[8] = 0.03 μM WAY-213613, normalized to current at 30 μM
[9] = 0.1 μM WAY-213613, normalized to current at 30 μM
[10] = 0.3 μM WAY-213613, normalized to current at 30 μM
[11] = 1 μM WAY-213613, normalized to current at 30 μM
[12] = 3 μM WAY-213613, normalized to current at 30 μM
[13] = 10 μM WAY-213613, normalized to current at 30 μM
[14] = 30 μM WAY-213613, normalization reference

T2 sequence (P43004 whole entry D475A): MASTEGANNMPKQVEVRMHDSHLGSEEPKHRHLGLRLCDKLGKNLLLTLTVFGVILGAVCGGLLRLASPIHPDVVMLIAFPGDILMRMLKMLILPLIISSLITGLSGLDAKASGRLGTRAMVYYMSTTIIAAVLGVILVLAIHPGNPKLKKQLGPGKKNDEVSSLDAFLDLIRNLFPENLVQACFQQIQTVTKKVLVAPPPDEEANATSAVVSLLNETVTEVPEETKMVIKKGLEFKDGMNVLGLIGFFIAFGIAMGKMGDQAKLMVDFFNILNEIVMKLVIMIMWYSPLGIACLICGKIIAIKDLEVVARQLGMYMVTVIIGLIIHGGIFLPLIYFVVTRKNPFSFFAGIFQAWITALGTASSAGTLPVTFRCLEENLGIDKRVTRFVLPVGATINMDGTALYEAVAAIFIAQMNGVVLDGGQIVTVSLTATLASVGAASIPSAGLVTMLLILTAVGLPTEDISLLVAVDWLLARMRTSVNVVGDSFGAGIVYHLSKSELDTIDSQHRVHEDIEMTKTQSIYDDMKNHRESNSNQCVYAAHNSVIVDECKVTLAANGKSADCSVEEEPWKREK
T7 sequence (P43004 whole entry V468I): as the sequence (P43004 whole entry D475A) above, with V468I, A475D counted along it
T3 sequence (P43004 whole entry R478A): as the sequence (P43004 whole entry D475A) above, with A475D, R478A counted along it
T5 sequence (P43004 whole entry I464V): as the sequence (P43004 whole entry D475A) above, with I464V, A475D counted along it
T4 sequence (P43004 whole entry S441G): as the sequence (P43004 whole entry D475A) above, with S441G, A475D counted along it
T6 sequence (P43004 whole entry L467I): as the sequence (P43004 whole entry D475A) above, with L467I, A475D counted along it
T1 sequence (P43004 whole entry, the tested form may be a part): as the sequence (P43004 whole entry D475A) above, with A475D counted along it

WAY-213613-inhibited current, normalized (MEAN) (wild-type hEAAT2; 0.01 μM WAY-213613, 0 mV, normalized to current at 30 μM WAY-213613): 0.1531
WAY-213613-inhibited current, normalized (MEAN) (wild-type hEAAT2; 0.03 μM WAY-213613, 0 mV, normalized to current at 30 μM WAY-213613): 0.3093
WAY-213613-inhibited current, normalized (MEAN) (wild-type hEAAT2; 0.1 μM WAY-213613, 0 mV, normalized to current at 30 μM WAY-213613): 0.5406
WAY-213613-inhibited current, normalized (MEAN) (wild-type hEAAT2; 0.3 μM WAY-213613, 0 mV, normalized to current at 30 μM WAY-213613): 0.7864
WAY-213613-inhibited current, normalized (MEAN) (wild-type hEAAT2; 1 μM WAY-213613, 0 mV, normalized to current at 30 μM WAY-213613): 0.9254
WAY-213613-inhibited current, normalized (MEAN) (wild-type hEAAT2; 3 μM WAY-213613, 0 mV, normalized to current at 30 μM WAY-213613): 0.9686
WAY-213613-inhibited current, normalized (MEAN) (wild-type hEAAT2; 30 μM WAY-213613, 0 mV, normalization reference): 1
effect of inhibitor on anion leak conductance (wild-type hEAAT2; wild-type hEAAT2): block the anion leak conductance
Ki (wild-type hEAAT2; wild-type hEAAT2, HEK293T, 0 mV, Michaelis-Menten-like fit, read-out: apparent Ki (inhibition of anion leak current)): 70 ± 30 nM
WAY-213613-inhibited current, normalized (MEAN) (hEAAT2 mutant D475A; [2]): 0.06104
WAY-213613-inhibited current, normalized (MEAN) (hEAAT2 mutant D475A; [3]): 0.08742
WAY-213613-inhibited current, normalized (MEAN) (hEAAT2 mutant D475A; [4]): 0.1387
WAY-213613-inhibited current, normalized (MEAN) (hEAAT2 mutant D475A; [5]): 0.2967
WAY-213613-inhibited current, normalized (MEAN) (hEAAT2 mutant D475A; [6]): 0.647
WAY-213613-inhibited current, normalized (MEAN) (hEAAT2 mutant D475A; [7]): 1
Ki (hEAAT2 mutant D475A; D475A mutant, read-out: apparent Ki): 30500 nM
WAY-213613-inhibited current, normalized (MEAN) (hEAAT2 mutant R478A; [2]): 0.173
WAY-213613-inhibited current, normalized (MEAN) (hEAAT2 mutant R478A; [3]): 0.3915
WAY-213613-inhibited current, normalized (MEAN) (hEAAT2 mutant R478A; [4]): 0.5586
WAY-213613-inhibited current, normalized (MEAN) (hEAAT2 mutant R478A; [5]): 0.7927
WAY-213613-inhibited current, normalized (MEAN) (hEAAT2 mutant R478A; [6]): 0.9136
WAY-213613-inhibited current, normalized (MEAN) (hEAAT2 mutant R478A; [7]): 1
Ki (hEAAT2 mutant R478A; R478A mutant, read-out: apparent Ki): 1680 nM
WAY-213613-inhibited current, normalized (MEAN) (hEAAT2 mutant S441G; [8]): 0.08476
WAY-213613-inhibited current, normalized (MEAN) (hEAAT2 mutant S441G; [9]): 0.2697
WAY-213613-inhibited current, normalized (MEAN) (hEAAT2 mutant S441G; [10]): 0.5414
WAY-213613-inhibited current, normalized (MEAN) (hEAAT2 mutant S441G; [11]): 0.7785
WAY-213613-inhibited current, normalized (MEAN) (hEAAT2 mutant S441G; [12]): 0.8947
WAY-213613-inhibited current, normalized (MEAN) (hEAAT2 mutant S441G; [13]): 0.9736
WAY-213613-inhibited current, normalized (MEAN) (hEAAT2 mutant S441G; [14]): 1
Ki (hEAAT2 mutant S441G; S441G mutant, read-out: apparent Ki): 260 nM
WAY-213613-inhibited current, normalized (MEAN) (hEAAT2 mutant I464V; [8]): 0.1438
WAY-213613-inhibited current, normalized (MEAN) (hEAAT2 mutant I464V; [9]): 0.3695
WAY-213613-inhibited current, normalized (MEAN) (hEAAT2 mutant I464V; [10]): 0.6353
WAY-213613-inhibited current, normalized (MEAN) (hEAAT2 mutant I464V; [11]): 0.8468
WAY-213613-inhibited current, normalized (MEAN) (hEAAT2 mutant I464V; [12]): 0.8861
WAY-213613-inhibited current, normalized (MEAN) (hEAAT2 mutant I464V; [13]): 0.98
WAY-213613-inhibited current, normalized (MEAN) (hEAAT2 mutant I464V; [14]): 1
Ki (hEAAT2 mutant I464V; I464V mutant, read-out: apparent Ki): ~170 nM and 166 nM
WAY-213613-inhibited current, normalized (MEAN) (hEAAT2 mutant L467I; [8]): 0.06992
WAY-213613-inhibited current, normalized (MEAN) (hEAAT2 mutant L467I; [9]): 0.1548
WAY-213613-inhibited current, normalized (MEAN) (hEAAT2 mutant L467I; [10]): 0.4253
WAY-213613-inhibited current, normalized (MEAN) (hEAAT2 mutant L467I; [11]): 0.7036
WAY-213613-inhibited current, normalized (MEAN) (hEAAT2 mutant L467I; [12]): 0.8764
WAY-213613-inhibited current, normalized (MEAN) (hEAAT2 mutant L467I; [13]): 1.001
WAY-213613-inhibited current, normalized (MEAN) (hEAAT2 mutant L467I; [14]): 1
Ki (hEAAT2 mutant L467I; L467I mutant, read-out: apparent Ki): ~460 nM and 464 nM
WAY-213613-inhibited current, normalized (MEAN) (hEAAT2 mutant V468I; [8]): 0.136
WAY-213613-inhibited current, normalized (MEAN) (hEAAT2 mutant V468I; [9]): 0.3481
WAY-213613-inhibited current, normalized (MEAN) (hEAAT2 mutant V468I; [10]): 0.6012
WAY-213613-inhibited current, normalized (MEAN) (hEAAT2 mutant V468I; [11]): 0.8026
WAY-213613-inhibited current, normalized (MEAN) (hEAAT2 mutant V468I; [12]): 0.923
WAY-213613-inhibited current, normalized (MEAN) (hEAAT2 mutant V468I; [13]): 0.993
WAY-213613-inhibited current, normalized (MEAN) (hEAAT2 mutant V468I; [14]): 1
Ki (hEAAT2 mutant V468I; V468I mutant, read-out: apparent Ki): ~200 nM and 196 nM
Structure (SMILES): NC(CC(=O)Nc1ccc(Oc2cc(F)c(F)cc2Br)cc1)C(=O)O (stereo not drawn) [WAY-213613]
IC50 (hEAAT1; hEAAT1): 5000 nM
selectivity (affinity) for hEAAT2 over hEAAT1 (hEAAT1; hEAAT2 over hEAAT1): 59 fold
selectivity (affinity) for hEAAT2 over hEAAT3 (hEAAT3; hEAAT2 over hEAAT3): 44 fold
IC50 (hEAAT3; hEAAT3): 3800 nM
effect on ionotropic and metabotropic glutamate receptors [1]: no effect
